Measurements as given in patent US20100267561A1, “HERBICIDAL PYRIDAZINONE DERIVATIVES” (priority 2007, published 2010).
Read-outs that look alike come from different tables or passages of the source.

Legend:
Test in all cases: Test B pre-/postemergence plant response
Type in all cases: in vivo
[1] = system: goosegrass (Eleusine indica); settings: for pest or weed control at 31 g/ha / pest or weed control at 62 g/ha: Eleusine indica, read-out: Plant response rating, Goosegrass; for pest or weed control at 31 g/ha: 31 g ai/ha; for pest or weed control at 62 g/ha: 62 g ai/ha, 100 complete control
Description: (§1) Seeds of plant species selected from blackgrass (Alopecurus myosuroides), downy bromegrass (Bromus tectorum), green foxtail (Setaria viridis), Italian ryegrass (Lolium multiflorum), wheat (Triticum aestivum), wild oat (Avena fatua), catchweed bedstraw (Galium aparine), bermudagrass (Cynodon dactylon), surinam grass (Brachiaria decumbens), cocklebur (Xanthium strumarium), corn (Zea mays), large crabgrass (Digitaria sanguinalis), woolly cupgrass (Eriochloa villosa), giant foxtail (Setaria faberii), goosegrass (Eleusine indica), johnsongrass (Sorghum halepense), kochia (Kochia scoparia), lambsquarters (Chenopodium album), morningglory (Ipomoea coccinea), eastern black (E.B.) nightshade (Solanum ptycanthum), yellow nutsedge (Cyperus esculentus), pigweed (Amaranthus retroflexus), common ragweed (Ambrosia elation), Russian thistle (Salsola iberica), soybean (Glycine max), common (oilseed) sunflower (Helianthus annuus), and velvetleaf (Abutilon theophrasti) were planted and treated preemergence with test chemicals formulated in a non-phytotoxic solvent mixture which included a surfactant.
(§2) At the same time, plants selected from these crop and weed species and also winter barley (Hordeum vulgare), canarygrass (Phalaris minor), chickweed (Stellaria media) and windgrass (Apera spica-venti) were treated with postemergence applications of some of the test chemicals formulated in the same manner. Plants ranged in height from 2 to 18 cm (1- to 4-leaf stage) for postemergence treatments.
(§3) Plant species in the flooded paddy test consisted of rice (Oryza sativa), umbrella sedge (Cyperus difformis), ducksalad (Heteranthera limosa) and barnyardgrass (Echinochloa crus-galli) grown to the 2-leaf stage for testing. At time of treatment, test pots were flooded to 3 cm above the soil surface, treated by application of test compounds directly to the paddy water, and then maintained at that water depth for the duration of the test. Treated plants and controls were maintained in a greenhouse for 13 to 15 days, after which time all species were compared to controls and visually evaluated. Plant response ratings, summarized in Table B, are based on a scale of 0 to 100 where 0 is no effect and 100 is complete control. A dash (-) response means no test result.

[2] = system: cocklebur (Xanthium strumarium); settings: for pest or weed control at 31 g/ha: 31 g ai/ha; for pest or weed control at 62 g/ha: 62 g ai/ha, 100 complete control
Description: as §1, §2, §3

[3] = system: soybean (Glycine max); settings: for plant injury at 31 g/ha / plant injury at 62 g/ha: Glycine max, read-out: Plant response rating, Soybean; for plant injury at 31 g/ha: 31 g ai/ha; for plant injury at 62 g/ha: 62 g ai/ha, 100 complete control
Description: as §1, §2, §3

[4] = system: bermudagrass (Cynodon dactylon); settings: for pest or weed control at 31 g/ha: 31 g ai/ha; for pest or weed control at 62 g/ha: 62 g ai/ha, 100 complete control
Description: as §1, §2, §3

[5] = system: Russian thistle (Salsola iberica); settings: Preemergence
Description: as §1, §2, §3

[6] = system: lambsquarters (Chenopodium album); settings: for pest or weed control at 31 g/ha / pest or weed control at 62 g/ha: Chenopodium album, read-out: Plant response rating, Lambsquarters; for pest or weed control at 31 g/ha: 31 g ai/ha; for pest or weed control at 62 g/ha: 62 g ai/ha, 100 complete control
Description: as §1, §2, §3

[7] = system: large crabgrass (Digitaria sanguinalis); settings: for pest or weed control at 31 g/ha: 31 g ai/ha; for pest or weed control at 62 g/ha: 62 g ai/ha, 100 complete control
Description: as §1, §2, §3

[8] = system: velvetleaf (Abutilon theophrasti); settings: for pest or weed control at 31 g/ha / pest or weed control at 62 g/ha: Abutilon theophrasti, read-out: Plant response rating, Velvetleaf; for pest or weed control at 31 g/ha: 31 g ai/ha; for pest or weed control at 62 g/ha: 62 g ai/ha, 100 complete control
Description: as §1, §2, §3

[9] = system: Italian ryegrass (Lolium multiflorum); settings: for pest or weed control at 31 g/ha / pest or weed control at 62 g/ha: Lolium multiflorum, read-out: Plant response rating, Ryegrass, Italian; for pest or weed control at 31 g/ha: 31 g ai/ha; for pest or weed control at 62 g/ha: 62 g ai/ha, 100 complete control
Description: as §1, §2, §3

[10] = system: common ragweed (Ambrosia elation); settings: for pest or weed control at 31 g/ha / pest or weed control at 62 g/ha: Ambrosia, read-out: Plant response rating, Ragweed; for pest or weed control at 31 g/ha: 31 g ai/ha; for pest or weed control at 62 g/ha: 62 g ai/ha, 100 complete control
Description: as §1, §2, §3

[11] = 8 g ai/ha, postemergence, 0-100 scale
[12] = 16 g ai/ha, postemergence, 0-100 scale
[13] = post-emergence, Postemergence, scale 0 to 100
[14] = post-emergence, Postemergence, scale 0 to 100, 0 no effect
[15] = pre-emergence, Preemergence, scale 0 to 100 (0 no effect, 100 complete control)
[16] = pre-emergence, Preemergence, 0 to 100 scale, 0 no effect
[17] = Preemergence, 8 g ai/ha, scale 0 to 100 (0 no effect, 100 complete control)
[18] = Preemergence, 16 g ai/ha, scale 0 to 100

Cc1nn(C)c(=O)c(-c2nc(-c3ccc(Cl)cc3)sc2C)c1O [Compound 79, 4-[2-(4-chlorophenyl)-5-methyl-4-thiazolyl]-5-hydroxy-2,6-dimethyl-3(2H)-pyridazinone]
15%: plant injury at 31 g/ha [3, 13] | plant injury at 62 g/ha [3, 14]
90: Bermudagrass plant response rating [4, 17] | Ryegrass, Italian plant response rating [9, 18]
20%: pest or weed control at 31 g/ha [6, 15]
0: Cocklebur plant response rating [2, 11] | Cocklebur plant response rating [2, 17] | Cocklebur plant response rating [2, 18] | Soybean plant response rating [3, 11] | Soybean plant response rating [3, 12] | Soybean plant response rating [3, 17] | Soybean plant response rating [3, 18] | Russian Thistle plant response rating ([5]; 8 g ai/ha, scale 0 to 100 (0 no effect, 100 complete control)) | Plant response rating, Russian Thistle ([5]; 31 g ai/ha, scale 0 to 100 (0 no effect, 100 complete control)) | Plant response rating, Russian Thistle ([5]; 62 g ai/ha, 0 to 100 scale, 0 no effect, 100 complete control) | Russian Thistle plant response rating ([5]; 16 g ai/ha, scale 0 to 100) | Lambsquarters plant response rating [6, 11] | Lambsquarters plant response rating [6, 12] | Lambsquarters plant response rating [6, 17] | Lambsquarters plant response rating [6, 18] | Velvetleaf plant response rating [8, 11] | Velvetleaf plant response rating [8, 12] | Velvetleaf plant response rating [8, 17] | Velvetleaf plant response rating [8, 18] | Ryegrass, Italian plant response rating [9, 17] | Ragweed plant response rating [10, 11] | Ragweed plant response rating [10, 12] | Ragweed plant response rating [10, 17] | Ragweed plant response rating [10, 18]
20: Crabgrass, Large plant response rating [7, 17]
80: Goosegrass plant response rating [1, 12]
55: Ryegrass, Italian plant response rating [9, 11]
60: Goosegrass plant response rating [1, 11]
0%: pest or weed control at 16 g/ha ([2]; Xanthium strumarium, post-emergence, Postemergence, 16 g ai/ha, scale 0 to 100, read-out: Plant response rating, Cocklebur) | pest or weed control at 31 g/ha ([2]; Xanthium strumarium, post-emergence, Postemergence, scale 0 to 100, read-out: Plant response rating, Cocklebur) | pest or weed control at 62 g/ha ([2]; Xanthium strumarium, post-emergence, Postemergence, scale 0 to 100, 0 no effect, read-out: Plant response rating, Cocklebur) | pest or weed control at 31 g/ha ([2]; Xanthium strumarium, pre-emergence, Preemergence, scale 0 to 100 (0 no effect, 100 complete control), read-out: Plant response rating, Cocklebur) | pest or weed control at 62 g/ha ([2]; Xanthium strumarium, pre-emergence, Preemergence, 0 to 100 scale, 0 no effect, read-out: Plant response rating, Cocklebur) | pest or weed control at 31 g/ha [6, 13] | pest or weed control at 62 g/ha [6, 14] | pest or weed control at 31 g/ha [8, 13] | pest or weed control at 62 g/ha [8, 14] | pest or weed control at 31 g/ha [8, 15] | pest or weed control at 62 g/ha [8, 16] | pest or weed control at 31 g/ha [10, 13] | pest or weed control at 62 g/ha [10, 14] | pest or weed control at 31 g/ha [10, 15] | pest or weed control at 62 g/ha [10, 16]
98: Goosegrass plant response rating [1, 17]
100: Goosegrass plant response rating [1, 18] | Bermudagrass plant response rating ([4]; Preemergence, 16 g ai/ha, scale 0 to 100 (0 no effect, 100 complete control)) | Crabgrass, Large plant response rating [7, 18]
75: Crabgrass, Large plant response rating [7, 11]
100%: pest or weed control at 31 g/ha [1, 15] | pest or weed control at 62 g/ha [1, 16] | plant injury at 62 g/ha [3, 16] | pest or weed control at 31 g/ha ([4]; Cynodon dactylon, post-emergence, Postemergence, scale 0 to 100, read-out: Plant response rating, Bermudagrass) | pest or weed control at 62 g/ha ([4]; Cynodon dactylon, post-emergence, Postemergence, scale 0 to 100, 0 no effect, read-out: Plant response rating, Bermudagrass) | pest or weed control at 31 g/ha ([4]; Cynodon dactylon, pre-emergence, Preemergence, scale 0 to 100 (0 no effect, 100 complete control), read-out: Plant response rating, Bermudagrass) | pest or weed control at 62 g/ha ([4]; Cynodon dactylon, pre-emergence, Preemergence, 0 to 100 scale, 0 no effect, read-out: Plant response rating, Bermudagrass) | pest or weed control at 62 g/ha [6, 16] | pest or weed control at 31 g/ha ([7]; Digitaria sanguinalis, pre-emergence, Preemergence, scale 0 to 100 (0 no effect, 100 complete control), read-out: Plant response rating, Crabgrass, Large) | pest or weed control at 62 g/ha ([7]; Digitaria sanguinalis, pre-emergence, Preemergence, 0 to 100 scale, 0 no effect, read-out: Plant response rating, Crabgrass, Large) | pest or weed control at 31 g/ha [9, 15] | pest or weed control at 62 g/ha [9, 16]
90%: pest or weed control at 62 g/ha [1, 14] | pest or weed control at 62 g/ha [9, 14]
80%: pest or weed control at 16 g/ha ([4]; Cynodon dactylon, post-emergence, Postemergence, 16 g ai/ha, scale 0 to 100, read-out: Plant response rating, Bermudagrass) | pest or weed control at 16 g/ha ([7]; Digitaria sanguinalis, post-emergence, Postemergence, 16 g ai/ha, scale 0 to 100, read-out: Plant response rating, Crabgrass, Large) | pest or weed control at 31 g/ha [9, 13]
98%: plant injury at 31 g/ha [3, 15] | pest or weed control at 62 g/ha ([7]; Digitaria sanguinalis, post-emergence, Postemergence, scale 0 to 100, 0 no effect, read-out: Plant response rating, Crabgrass, Large)
70: Bermudagrass plant response rating [4, 11] | Ryegrass, Italian plant response rating [9, 12]
85%: pest or weed control at 31 g/ha [1, 13] | pest or weed control at 31 g/ha ([7]; Digitaria sanguinalis, post-emergence, Postemergence, scale 0 to 100, read-out: Plant response rating, Crabgrass, Large)
